Laboratory results reported in patent publication US20260242335A1, “HETEROCYCLOALKYL BETA-HYDROXY ALKYL AMINES FOR USE IN THE TREATMENT OF HYPERGLYCAEMIA AND DISORDERS CHARACTERISED BY HYPERGLYCAEMIA” (ATROGI AB, priority 2023, published 2026).
Structures can show the parent of a compound that is named as a salt.

How the values were obtained:
L6-myotubes [1] = assay: Measurement of intracellular cAMP levels (alpha screen cAMP kit) in differentiated cells, compared to isoproterenol; format: cell-based; settings: 0.25 h, compound at 10 μM vs isoproterenol at 10 μM, 15 min stimulation, read-out: Biological example 2: intracellular cAMP level activity compared to that of isoproterenol
Experimental: (§1) L6-myoblasts were grown in Dulbecco's Modified Eagle's Medium (DMEM) containing 1 g/L glucose supplemented with 10% fetal bovine serum, 2 mM L-Glutamine, 50 U/mL penicillin, […] streptomycin and 10 mM HEPES. Cells were plated at 1×10^5 cells per mL in 24-well plates. After reaching 90% confluence the cells were grown in medium containing 2% FBS for 7 days where upon cells differentiated into myotubes.
Differentiated cells were serum-starved overnight and stimulated with an agonist, final concentration 1×10^−5 M, for 15 min in stimulation buffer (HBSS supplemented with 1% BSA, 5 mM HEPES and 1 mM IBMX, pH 7.4). The medium was aspirated and 100 μL of 95% EtOH was added to each well of the 24-well plate and cells were kept at −20° C. overnight. The EtOH was allowed to evaporate and 500 μL of lysis buffer (1% BSA, 5 mM HEPES and 0.3% Tween-20, pH 7.4) was added to each well. The plate was kept at −80° C. for 30 min and then at −20° C. until the day of detection when the samples were thawed. Intracellular cAMP levels were detected using an alpha screen cAMP kit (6760635D from Perkin Elmer). The activity for each compound is compared to that of isoproterenol.

L6-myotubes [2] = assay: Glucose uptake (3H-2-deoxyglucose) in differentiated L6-myotubes, compared to isoproterenol; format: cell-based; settings: compound at 10 μM vs isoproterenol at 10 μM, read-out: Biological example 1: glucose uptake activity compared to that of isoproterenol
Experimental: as §1
Differentiated L6-myotubes were serum-starved overnight in medium containing 0.5% fatty-acid free BSA and stimulated with an agonist, with a final concentration of 1×10^−5 M. After 1 h 40 min the cells were washed with warm glucose free medium or PBS twice and another portion of agonist was added to the glucose free medium. After 20 min the cells were exposed to 50 nM ^3H-2-deoxyglucose for another 10 min before washed in ice cold glucose free medium or PBS three times and lysed in 400 μL/well 0.2 M NaOH for 1 h at 60° C. The cell lysate was mixed with 4 mL scintillation buffer (Emulsifier Safe, Perkin Elmer) and the radioactivity was detected in a p-counter (Tri-Carb 4810TR, Perkin Elmer). The activity for each compound is compared to that of isoproterenol.

`CC(C)(C[C@H]1CCNC1=O)NC[C@H](O)c1cncc(F)c1` [Example 75, (R)-3-(2-(((R)-2-(5-Fluoropyridin-3-yl)-2-hydroxyethyl)amino)-2-methylpropyl)pyrrolidin-2-one dihydrochloride] was tested, and the Emax at 10 µM (L6-myotubes [1]) was < 25% and the Emax at 10 µM (L6-myotubes [2]) was 25 to 50%.

For `CC(C)(C[C@H]1CCN(S(C)(=O)=O)C1)NC[C@H](O)c1cccc(F)c1` [Example 59, (R)-1-(3-Fluorophenyl)-2-((2-methyl-1-((R)-1-(methylsulfonyl)-pyrrolidin-3-yl)propan-2-yl)amino)ethan-1-ol], the Emax at 10 µM (L6-myotubes [1]) was < 25% and the Emax at 10 µM (L6-myotubes [2]) was > 75%.

`CN(C)C(=O)N1CCC[C@@H](CC(C)(C)NC[C@H](O)c2cncc(F)c2)C1` [Example 18, (S)-3-(2-(((R)-2-(5-Fluoropyridin-3-yl)-2-hydroxyethyl)amino)-2-methylpropyl)-N,N-dimethylpiperidine-1-carboxamide dihydrochloride] was tested, and the Emax at 10 µM (L6-myotubes [1]) was < 25% and the Emax at 10 µM (L6-myotubes [2]) was > 75%.

With `CC(C)(C[C@H]1CCN(S(C)(=O)=O)C1)NC[C@H](O)c1cncc(F)c1` [Example 63, (R)-1-(5-Fluoropyridin-3-yl)-2-((2-methyl-1-((R)-1-(methylsulfonyl)-pyrrolidin-3-yl)propan-2-yl)amino)ethan-1-ol] the Emax at 10 µM (L6-myotubes [1]) was < 25% and the Emax at 10 µM (L6-myotubes [2]) was > 75%.

With `CC(C)(C[C@@H]1CCCN(C(=O)C(C)(C)C)C1)NC[C@H](O)c1cccc(F)c1` [Example 5, 1-((S)-3-(2-(((R)-2-(3-Fluorophenyl)-2-hydroxyethyl)amino)-2-methylpropyl)piperidin-1-yl)-2,2-dimethylpropan-1-one] the Emax at 10 µM (L6-myotubes [1]) was < 25% and the Emax at 10 µM (L6-myotubes [2]) was 50 to 75%.

With `CC(C)(CC1CCOCC1)NC[C@H](O)c1cccc(F)c1` [Example 80, (R)-1-(3-Fluorophenyl)-2-((2-methyl-1-(tetrahydro-2H-pyran-4-yl)-propan-2-yl)amino)ethan-1-ol] the Emax at 10 µM (L6-myotubes [1]) was < 25% and the Emax at 10 µM (L6-myotubes [2]) was > 75%.

In the case of `CC(C)(C[C@@H]1CCNC(=O)C1)NC[C@H](O)c1cccc(F)c1` [Example 53, (S)-4-(2-(((R)-2-(3-Fluorophenyl)-2-hydroxyethyl)amino)-2-methyl-propyl)piperidin-2-one], the Emax at 10 µM (L6-myotubes [1]) is reported as > 75% and the Emax at 10 µM (L6-myotubes [2]) is reported as > 75%.

With `CC(C)(C[C@@H]1CCCNC1)NC[C@H](O)c1cccc(F)c1` [Example 2, (R)-1-(3-Fluorophenyl)-2-((2-methyl-1-((S)-piperidin-3-yl)propan-2-yl)amino)ethan-1-ol] the Emax at 10 µM (L6-myotubes [1]) was 25 to 50% and the Emax at 10 µM (L6-myotubes [2]) was > 75%.

In the case of `CC(C)(CC1CCN(C(=O)OC(C)(C)C)CC1)NC[C@H](O)c1cncc(F)c1` [Example 33, tert-Butyl (R)-4-(2-((2-(5-fluoropyridin-3-yl)-2-hydroxyethyl)amino)-2-methylpropyl)piperidine-1-carboxylate], the Emax at 10 µM (L6-myotubes [1]) is reported as < 25% and the Emax at 10 µM (L6-myotubes [2]) is reported as > 75%.

In the case of `CC(C)(C[C@@H]1CCN(S(C)(=O)=O)C1)NC[C@H](O)c1cncc(F)c1` [Example 71, (R)-1-(5-Fluoropyridin-3-yl)-2-((2-methyl-1-((S)-1-(methylsulfonyl)-pyrrolidin-3-yl)propan-2-yl)amino)ethan-1-ol], the Emax at 10 µM (L6-myotubes [1]) is reported as < 25% and the Emax at 10 µM (L6-myotubes [2]) is reported as > 75%.

`CC(C)(CN1CCC(C)(NS(C)(=O)=O)CC1)NC[C@H](O)c1cccc(F)c1` [Example 88, (R)—N-(1-(2-((2-(3-Fluorophenyl)-2-hydroxyethyl)amino)-2-methyl-propyl)-4-methylpiperidin-4-yl)methanesulfonamide dihydrochloride] showed an Emax at 10 µM (L6-myotubes [2]) of 50 to 75%.

In the case of `CC(=O)NC1(C)CCN(CC(C)(C)NC[C@H](O)c2cccc(F)c2)CC1` [Example 87, (R)—N-(1-(2-((2-(3-Fluorophenyl)-2-hydroxyethyl)amino)-2-methyl-propyl)-4-methylpiperidin-4-yl)acetamide], the Emax at 10 µM (L6-myotubes [2]) is reported as 50 to 75%.

For `CN1C[C@@H](CC(C)(C)NC[C@H](O)c2cccc(F)c2)CCC1=O` [Example 79, (R)-5-(2-(((R)-2-(3-Fluorophenyl)-2-hydroxyethyl)amino)-2-methyl-propyl)-1-methylpiperidin-2-one hydrochloride], the Emax at 10 µM (L6-myotubes [2]) was > 75%.
